In patent US20100173780A1, “POLYPHENOL-CONTENT-[…] FOR PLANT” (COSMO OIL CO., LTD., priority 2006, published 2010):

What was measured:
green pepper = test: Amount of polyphenol in green pepper after ALA treatment (HPLC); type: in vivo, green pepper (Solanaceae, genus cayenne, race Miogi)
Procedure: (§1) Two containers (length: 0.75 m, width 0.5 m) were provided and soil was placed in each of them. A Chemical fertilizer (nitrogen content:phosphorus content:potassium content=15:15:15 as mass ratio) was used as a base fertilizer and young plants of green pepper (Solanaceae, genus cayenne, race Miogi) were grown for two months according to a conventional method. Water was applied to the young plants once a day by means of a sprinkling can. Prior to one month from harvest, treatment was conducted once a week with 50 mL per container of each aqueous solution containing 0 ppm (control) or 1 ppm of 5-aminolevulinic acid hydrochloride to which a spreading agent, Approach BI (manufactured by Kao Corporation) had been added in a ratio of 0.1% by mass. After harvest, 3 g of green pepper was finely cut with scissors and a kitchen knife and then homogenized after addition of water. The homogenized one was diluted up to 6 mL with distilled water (stock solution) and the stock solution was divided into three even portions and used in the following extraction methods (1) to (3). (1) Three mL of ethyl acetate was added to 2 mL of the stock solution and the resultant one was centrifuged at 3000 rpm for 10 minutes. The supernatant was transferred to a spit tube and was evaporated to dryness with nitrogen gas while the tube was immersed in a warm bath at about 60° C. Thereto were added 200 μL of methanol and 100 μL of distilled water, thereby the volume being made 300 μL. (2) Two mL of methanol was added to 2 mL of the stock solution and the resultant one was centrifuged at 3000 rpm for 10 minutes. The supernatant was transferred to a spit tube and was evaporated to dryness with nitrogen gas while the tube was immersed in a warm bath at about 60° C. Thereto were added 200 μL of methanol and 100 μL of distilled water, thereby the volume being made 300 μL. (3) One mL of 0.1N hydrochloric acid was added to 2 mL of the stock solution and the resultant one was transferred to a plastic tube and kept in a drive-lock bath at 96.5° C. for 1 hour to effect hydrolysis. Five mL of ethyl acetate was added thereto and the resultant one was centrifuged at 3000 rpm for 10 minutes. The supernatant was transferred to a spit tube and was evaporated to dryness with nitrogen gas while the tube was immersed in a warm bath at about 60° C. Thereto were added 200 μL of methanol and 100 μL of distilled water, thereby the volume being made 300 μL. The samples from (1) to (3) were measured by high-performance liquid chromatography (HPLC) (analytical conditions: the measurement was performed at a flow rate of 1.0 mL/min at a column temperature of 40° C. using a wavelength of 350 nm, using Liquid A (80% by volume of methanol/5% by volume of acetic acid) or Liquid B (10% by volume of methanol/5% by volume of acetic acid) as an eluent, and using a column of Hichrom5C18, T898, 4.6 mm×[…] (manufactured by LLOYD′S REGISTER QUALITY COMPANY) and each concentration was calculated based on standard solutions. In Table 1, the most highly extracted value was cited among the results measured with each of the extraction methods (1) to (3). Moreover, the sum of individual concentration of polyphenol used in this time was regarded as the total amount of polyphenol.

asparagus = test: Amount of polyphenol in asparagus after ALA treatment (HPLC); type: in vivo, asparagus (Liliaceae, genus asparagus, race Welcome); conditions: 3 ppm
Procedure: as §1
Prior to 150 days from harvest, treatment to tetraennial-root asparagus (Liliaceae, genus asparagus, race Welcome) grown in a vertical stem form in a greenhouse was conducted once a fortnight with a spraying amount of 100 L/tan of each solution containing 0 ppm (control) or 3 ppm of 5-aminolevulinic acid hydrochloride. After harvest, the content of polyphenol was analyzed in the same manner as in Example 1.

parsley = test: Amount of polyphenol in parsley after ALA treatment (HPLC); type: in vivo, parsley (Umbelliferae, genus parsley, race Paramount); conditions: 1 ppm
Procedure: as §1
(§2) Two containers (length: 0.75 m, width 0.5 m) were provided and soil was placed in each of them. A Chemical fertilizer (nitrogen content:phosphorus content:potassium content=15:15:15 as mass ratio) was used as a base fertilizer and seeds of parsley (Umbelliferae, genus parsley, race Paramount) were planted according to a conventional method and water was applied once a day by means of a sprinkling can. Prior to one month from harvest, treatment was conducted once a week with 50 mL per container of each aqueous solution containing 0 ppm (control) or 1 ppm of 5-aminolevulinic acid hydrochloride. After harvest, the content of polyphenol was analyzed in the same manner as in Example 1.

pepper = test: Amount of polyphenol in pepper after ALA treatment (HPLC); type: in vivo, pepper (Solanaceae, genus cayenne; conditions: pepper (race Habanero), 1 ppm
Procedure: as §1
as §2, with “young plants” for “seeds”, “pepper (Solanaceae,” for “parsley (Umbelliferae,”, “cayenne,” for “parsley,”, “Habanero)” for “Paramount)”

[1] = 1 ppm, 50 mL per container once a week from one month before harvest, HPLC, highest of extraction methods (1)-(3)
[2] = greenhouse, 100 L/tan once a fortnight from 150 days before harvest, HPLC
[3] = 50 mL per container once a week from one month before harvest, HPLC
[4] = 50 mL per container once a week from one month before harvest, sum of the individual polyphenols
[5] = 50 mL per container once a week, versus 0 ppm control

Compound: Cl.NCC(=O)CCC(=O)O [ALA, 5-aminolevulinic acid hydrochloride]
- Total amount of polyphenol in green pepper (green pepper; 1 ppm once a week from one month before harvest, sum of the individual polyphenol concentrations): 48824 ng/g
- ALA/control ratio of total amount of polyphenol in green pepper (green pepper; 1 ppm once a week from one month before harvest, versus 0 ppm control): 9.4
- Apigenin amount in green pepper (green pepper; [1]): 0 ng/g
- Caffeic acid amount in green pepper (green pepper; [1]): 276 ng/g
- Chlorogenic acid amount in green pepper (green pepper; [1]): 4856 ng/g
- Ferulic acid amount in green pepper (green pepper; [1]): 5680 ng/g
- Hesperetin amount in green pepper (green pepper; [1]): 236 ng/g
- Isorhamnetin amount in green pepper (green pepper; [1]): 1849 ng/g
- Kaempferol amount in green pepper (green pepper; [1]): 668 ng/g
- Luteolin amount in green pepper (green pepper; [1]): 644 ng/g
- Quercetin amount in green pepper (green pepper; [1]): 28919 ng/g
- Rutin amount in green pepper (green pepper; [1]): 5696 ng/g
- ALA/control ratio of total amount of polyphenol in asparagus (asparagus; 100 L/tan once a fortnight, versus 0 ppm control): 2.3
- Apigenin amount in asparagus (asparagus; [2]): 456 ng/g
- Caffeic acid amount in asparagus (asparagus; [2]): 0 ng/g
- Chlorogenic acid amount in asparagus (asparagus; [2]): 2983 ng/g
- Ferulic acid amount in asparagus (asparagus; [2]): 9899 ng/g
- Hesperetin amount in asparagus (asparagus; [2]): 20198 ng/g
- Isorhamnetin amount in asparagus (asparagus; [2]): 1022 ng/g
- Kaempferol amount in asparagus (asparagus; [2]): 723 ng/g
- Luteolin amount in asparagus (asparagus; [2]): 1923 ng/g
- Quercetin amount in asparagus (asparagus; [2]): 5533 ng/g
- Rutin amount in asparagus (asparagus; [2]): 40234 ng/g
- Total amount of polyphenol in asparagus (asparagus; greenhouse, 100 L/tan once a fortnight from 150 days before harvest, sum of the individual polyphenols): 82971 ng/g
- Apigenin amount in parsley (parsley; [3]): 1099 ng/g
- Caffeic acid amount in parsley (parsley; [3]): 4240 ng/g
- Chlorogenic acid amount in parsley (parsley; [3]): 20820 ng/g
- Ferulic acid amount in parsley (parsley; [3]): 0 ng/g
- Hesperetin amount in parsley (parsley; [3]): 110685 ng/g
- Isorhamnetin amount in parsley (parsley; [3]): 4388 ng/g
- Kaempferol amount in parsley (parsley; [3]): 10321 ng/g
- Luteolin amount in parsley (parsley; [3]): 2733 ng/g
- Quercetin amount in parsley (parsley; [3]): 37699 ng/g
- Rutin amount in parsley (parsley; [3]): 28977 ng/g
- Total amount of polyphenol in parsley (parsley; [4]): 220962 ng/g
- ALA/control ratio of total amount of polyphenol in parsley (parsley; [5]): 3.5
- Apigenin amount in pepper (pepper; [3]): 2570 ng/g
- Caffeic acid amount in pepper (pepper; [3]): 5520 ng/g
- Chlorogenic acid amount in pepper (pepper; [3]): 18020 ng/g
- Ferulic acid amount in pepper (pepper; [3]): 9270 ng/g
- Hesperetin amount in pepper (pepper; [3]): 0 ng/g
- Isorhamnetin amount in pepper (pepper; [3]): 270 ng/g
- Kaempferol amount in pepper (pepper; [3]): 0 ng/g
- Luteolin amount in pepper (pepper; [3]): 62060 ng/g
- Quercetin amount in pepper (pepper; [3]): 26700 ng/g
- Rutin amount in pepper (pepper; [3]): 457080 ng/g
- Total amount of polyphenol in pepper (pepper; [4]): 581490 ng/g
- ALA/control ratio of total amount of polyphenol in pepper (pepper; [5]): 1.4
